Structures are written as SMILES.

The assay has as its target T1, human SGLT2 (Homo sapiens, UniProt P31639).
T1 construct: expressed in transfected cells
T1 sequence (P31639 1-672): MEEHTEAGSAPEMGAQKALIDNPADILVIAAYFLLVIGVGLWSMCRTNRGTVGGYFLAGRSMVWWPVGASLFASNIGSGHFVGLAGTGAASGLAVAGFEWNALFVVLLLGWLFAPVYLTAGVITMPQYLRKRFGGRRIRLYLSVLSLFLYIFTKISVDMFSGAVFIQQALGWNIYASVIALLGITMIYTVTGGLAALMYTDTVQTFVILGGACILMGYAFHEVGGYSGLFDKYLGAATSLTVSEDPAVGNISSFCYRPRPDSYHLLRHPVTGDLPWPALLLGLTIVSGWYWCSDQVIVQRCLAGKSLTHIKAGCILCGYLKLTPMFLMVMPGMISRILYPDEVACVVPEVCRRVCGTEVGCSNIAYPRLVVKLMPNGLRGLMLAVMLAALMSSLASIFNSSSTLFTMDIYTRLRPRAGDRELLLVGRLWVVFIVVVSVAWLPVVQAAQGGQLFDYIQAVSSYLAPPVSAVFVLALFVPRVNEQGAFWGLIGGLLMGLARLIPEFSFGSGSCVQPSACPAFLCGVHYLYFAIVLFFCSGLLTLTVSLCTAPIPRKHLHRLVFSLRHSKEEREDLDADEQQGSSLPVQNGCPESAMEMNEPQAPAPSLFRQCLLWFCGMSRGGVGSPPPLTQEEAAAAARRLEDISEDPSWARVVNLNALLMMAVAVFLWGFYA
The assay is described as follows: SGLT2 in vitro assay: Na-dependent 14C-AMG uptake in CHO-K1 cells stably expressing human SGLT2. It counts as cell-based. To be noted: CHO-K1 cells stably expressing human SGLT2, 14C-AMG uptake; for inhibition at 0.3 µM: read-out: SGLT2 % Inh @ 0.3 μM; for IC50: compounds of formula (I) where R0 is fluoro. In short, it runs like this:
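Sodium-dependent uptake of 14C-α-methyl-glucopyranoside ([…]) over 2 h at 37°C was counted by scintillation in stable human SGLT2- or SGLT1-CHO-K1 lines pretreated with 10 mM Na-butyrate. Compounds at 0.001–10 μM were preincubated for 10 min in pH 7.4 buffer with 137 mM NaCl; output is %-inhibition or IC50.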

`COc1cc(O)c([C@@H]2O[C@H](CO)C(F)(F)[C@H](O)[C@H]2O)cc1Cc1ccc2c(c1)CCCO2` [Compound 44, (2S,3R,4R,6R)-2-(5-(chroman-6-ylmethyl)-2-hydroxy-4-methoxyphenyl)-5,5-difluoro-6-(hydroxymethyl)tetrahydro-2H-pyran-3,4-diol]: the inhibition at 0.3 µM worked out at 90.1% and the IC50 (in general, the point on the concentration scale where inhibition reaches its midpoint) worked out at 1.3 nM.
Taken in the same sequence, the figures for `COc1ccc(Cc2cc([C@@H]3O[C@H](CO)C(F)(F)[C@H](O)[C@H]3O)c(O)cc2Cl)cc1` [Compound 81, (2S,3R,4R,6R)-2-(4-chloro-2-hydroxy-5-(4-methoxybenzyl)phenyl)-5,5-difluoro-6-(hydroxymethyl)-tetrahydro-2H-pyran-3,4-diol] were 87.4% and 1.1 nM.

The record behind these values is US20210238170A1, “5,5-Difluoro- and 5-Fluoro-5-Methyl-C-Glycoside Derivatives Useful As Dual SGLT1 / SGLT2 Modulators” (Janssen Pharmaceutica NV, priority 2018, published 2021).
